Results published in US8399682B2, “Substituted (pyrazolylcarbonyl)imidazolidinones and their use” (AiCuris GmbH & Co. KG, priority 2008, dated 2013).
pIC50: −log10 of the molar value. Where two headings read alike, the source gives them in different places.

Assays:
[1] = system: HIV-1LAI; assay: H9 assay with wild-type HIV-1 (HIV-1LAI supernatant infection, AlamarBlue); assay type: cell-based; conditions: Human immunodeficiency virus 1, H9 cells, 10% FCS
Description: For the mixture for a 96-well MTP, 3 million PBLs are pelleted, suspended in 1 ml of RPMI 1640 medium/10% FCS and incubated together with a suitable amount of HIV-1LAI (NIH AIDS Research & Reference Reagent Program, Germantown, USA) at 37° C. for 2 hours (pellet infection). Unadsorbed viruses are subsequently washed out with PBS, and the infected cells are pelleted again and suspended in 18 ml of RPMI 1640 medium/10% FCS/interleukin-2 (40 U/ml). 180 μl thereof are pipetted into each well of a white 96-well MTP with 20 μl of test substance in suitable dilution. Alternatively, after preparation of the substance dilutions in the MTP, the HIV is pipetted in together with the cells and is not washed out again (supernatant infection). In order to avoid edge effects, the wells at the edge of the MTP are not used for substance dilutions. The second vertical row of the MTP contains only infected cells (virus control) and the eleventh vertical row only uninfected cells (cell control), in each case in RPMI 1640 medium/10% FCS/interleukin-2 (40 U/ml). The other wells of the MTP contain the compounds of the invention in various concentrations starting from the third vertical row, from which the test substances are diluted in 3-fold steps up to the tenth vertical row 3^7-fold. The test substances are dissolved in DMSO, whereby the final DMSO concentration in the test mixture eventually is 1%. The test mixtures are incubated at 37° C./5% CO2. After 5 and 7 days, 50 μl of cell-free supernatant are removed from each well to determine the amount of p24 present by means of a p24 ELISA (HIV-1 p24^CA Antigen Capture Assay Kit, NCI-Frederick Cancer Research and Development Center, Frederick, USA). From the resulting values of the photometric evaluation (450/620 nm) the EC50 values of the test substances are determined as the concentration at which the amount of p24 is 50% of the untreated infected cells.
Alternatively, H9 cells (ATCC, Wesel, Germany) are employed instead of PBLs for testing the test substances. H9 cells are incubated in RPMI 1640 medium with 2% or 10% FCS as a HIV-1LAI supernatant infection at 37° C./5% CO2, (20 μl of substance dilution and 80 μl of cells/virus per well) in accordance with the pattern described above for 5 days. Subsequently, 10 μl of AlamarBlue (Invitrogen, Karlsruhe, Germany) are added to each well, and the MTPs are incubated at 37° C. for 3 hours before the fluorimetric evaluation takes place (544/590 nm). The resulting values are about 40 000 for the untreated uninfected cells and about 7000 for the untreated infected cells. In the low concentration range, the EC50 values of the test substances are determined as the concentration at which the fluorescence is 50% of the untreated uninfected cells (in each case subtracting the values of the untreated infected cells). In addition, in the high concentration range, the CC50 values of the test substances are determined as the concentration at which the fluorescence is 50% of the untreated uninfected cells (in each case subtracting the values of the untreated infected cells).

[2] = system: HIV-1NL4-3 wt; assay: Light assay with wild-type HI reporter virus in MT4 7F2 cells; assay type: cell-based; conditions: Human immunodeficiency virus 1, 2% FCS
Description: (§1) For the mixture for a 96-well MTP, 3 million MT4 7F2 cells are pelleted, suspended in 1 ml of RPMI 1640 medium without phenol red (Invitrogen, Karlsruhe, Germany)/10% FCS/10% AIM-V (Invitrogen, Karlsruhe, Germany) and incubated together with a suitable amount of the corresponding HIV-1NL4-3 reporter virus at 37° C. for 2 hours (pellet infection). Unadsorbed viruses are subsequently washed out with PBS, and the infected cells are pelleted again and suspended in 8 ml of RPMI 1640 medium without phenol red/2% or 10% FCS/10% AIM-V. 80 μl thereof are pipetted into each well of a white 96-well MTP with 20 μl of test substance in suitable dilution. To avoid edge effects, the wells on the edge of the MTP are not used for substance dilutions. The second vertical row of the MTP contains only infected cells (virus control) and the eleventh vertical row only uninfected cells (cell control), in each case in RPMI 1640 medium without phenol red/2% or 10% FCS/10% AIM-V. The other wells of the MTP contain the compounds of the invention in various concentrations starting from the third vertical row, from which the test substances are diluted in 3-fold steps up to the tenth vertical row 3^7-fold. The test substances are dissolved in DMSO, whereby the final DMSO concentration in the test mixture eventually is 1%. The test mixtures are incubated at 37° C./5% CO2 for five days and, after the addition of 15 μl of Lu164 substrate (5 mg/ml coelenterazine dissolved in 30 μM glutathione/DMSO, 100 mM NaCl, 1M MES, 100 mM glutathione), evaluated by luminometry. The resulting values are in the region of 1 000 000 RLUs (relative light units) for the virus control and 300 to 400 RLUs for the cell control. The EC50 values of the test substances are determined as the concentration at which the virus replication measured in RLUs is 50% of the untreated infected cells.

[3] = target: T1, reverse transcriptase (Human immunodeficiency virus type 1 group M subtype B, UniProt P04585); assay: Biochemical Reverse Transcriptase Assay (Reverse Transcriptase Assay, colorimetric, Roche); conditions: for IC50: read-out: IC50 (nM) RT Assay
T1 construct: negative control (mixture without reverse transcriptase); purchased Roche Diagnostics GmbH, Mannheim, Germany
Description: The “Reverse Transcriptase Assay, colorimetric” (Roche Diagnostics GmbH, Mannheim, Germany) is used in accordance with the manufacturer's information. The test substances are dissolved in DMSO and are used in the test diluted in 5-fold steps (final DMSO concentration 1%). The resulting values of the photometric evaluation (405/492 nm) are less than 0.1 for the negative control (mixture without reverse transcriptase) and are in the region of 1.5 for the positive control (mixture without test substance). The IC50 values of the test substances are determined as the concentration of the test substance dilution at which the measured optical density is 50% of the positive control.

[4] = system: HIV-1NL4-3 K103N-Y181C; assay: Light assay with inhibitor-resistant HI reporter virus in MT4 7F2 cells; assay type: cell-based; conditions: Human immunodeficiency virus 1, read-out: EC50 (nM) MT4 7F2 cells HIV-1NL4-3 K103N-Y181C 2% FCS
Description: as §1

| SMILES | EC50 [1] | EC50 [2] | IC50 [3] | EC50 [4] | pIC50 [3] |
| --- | --- | --- | --- | --- | --- |
| O=C1CN(C(=O)c2cc(-c3cc(F)cc(Cl)c3)n(-c3ccc(F)c(Cl)c3)n2)CN1 [Example 1, 1-{[1-(3-Chloro-4-fluorophenyl)-5-(3-chloro-5-fluorophenyl)-1H-pyrazol-3-yl]carbonyl}imidazolidin-4-one] | 2 nM | 0.2 nM | 38 nM | 3 nM | – |
| O=C1CN(C(=O)c2cc(-c3cc(F)cc(Cl)c3)n(-c3cccc(Cl)c3)n2)CN1 [Example 2, 1-{[5-(3-Chloro-5-fluorophenyl)-1-(3-chlorophenyl)-1H-pyrazol-3-yl]carbonyl}imidazolidin-4-one] | 0.2 nM | 0.06 nM | 34 nM | 11 nM | – |
| O=C1CN(C(=O)c2cc(-c3cc(F)cc(F)c3)n(-c3cccc(Cl)c3)n2)CN1 [Example 3, 1-{[1-(3-Chlorophenyl)-5-(3,5-difluorophenyl)-1H-pyrazol-3-yl]carbonyl}imidazolidin-4-one] | 0.2 nM | 0.03 nM | 37 nM | 7 nM | – |
| O=C1CN(C(=O)c2cc(-c3cccc(Cl)c3)n(-c3cccc(Cl)c3)n2)CN1 [Example 4, 1-{[1,5-Bis(3-chlorophenyl)-1H-pyrazol-3-yl]carbonyl}imidazolidin-4-one] | 11 nM | 1 nM | 75 nM | 45 nM | – |
| COc1cc(F)cc(-c2cc(C(=O)N3CNC(=O)C3)nn2-c2cccc(Cl)c2)c1 [Example 21, 1-{[1-(3-Chlorophenyl)-5-(3-fluoro-5-methoxyphenyl)-1H-pyrazol-3-yl]carbonyl}imidazolidin-4-one] | 3 nM | 1 nM | 59 nM | 38 nM | – |
| COc1cc(F)cc(-c2cc(C(=O)N3CNC(=O)C3)nn2-c2ccc(F)c(Cl)c2)c1 [Example 22, 1-{[1-(3-Chloro-4-fluorophenyl)-5-(3-fluoro-5-methoxyphenyl)-1H-pyrazol-3-yl]carbonyl}imidazolidin-4-one] | 2 nM | 0.3 nM | 131 nM | 10 nM | – |
| N#Cc1cccc(-c2cc(C(=O)N3CNC(=O)C3)nn2-c2ccc(F)c(Cl)c2)c1 [Example 25] | 2 nM | 0.6 nM | 99 nM | 30 nM | – |
| O=C1CN(C(=O)c2cc(-c3cccc(F)c3)n(-c3ccc(F)c(Cl)c3)n2)CN1 [Example 26, 1-{[1-(3-Chloro-4-fluorophenyl)-5-(3-fluorophenyl)-1H-pyrazol-3-yl]carbonyl}imidazolidin-4-one] | 11 nM | 2 nM | 104 nM | 65 nM | – |
| O=C1CN(C(=O)c2cc(-c3cc(F)cc(C(F)(F)F)c3)n(-c3cccc(Cl)c3)n2)CN1 [Example 30, 1-({1-(3-Chlorophenyl)-5-[3-fluoro-5-(trifluoromethyl)phenyl]-1H-pyrazol-3-yl}carbonyl)imidazolidin-4-one] | 8 nM | 3 nM | 297 nM | 16 nM | – |
| O=C1CN(C(=O)c2cc(-c3cccc(Cl)c3)n(-c3cccc(Br)c3)n2)CN1 [Example 32, 1-{[1-(3-Bromophenyl)-5-(3-chlorophenyl)-1H-pyrazol-3-yl]carbonyl}imidazolidin-4-one] | 0.7 nM | 0.1 nM | 65 nM | 25 nM | – |
| O=C1CN(C(=O)c2cc(-c3ccc(F)c(Cl)c3)n(-c3cccc(Br)c3)n2)CN1 [Example 33, 1-{[1-(3-Bromophenyl)-5-(3-chloro-4-fluorophenyl)-1H-pyrazol-3-yl]carbonyl}imidazolidin-4-one] | 0.5 nM | 0.07 nM | 8 nM | 3 nM | – |
| O=C1CN(C(=O)c2cc(-c3cc(F)cc(OCCO)c3)n(-c3ccc(F)c(Cl)c3)n2)CN1 [Example 36] | 3 nM | 0.6 nM | – | 45 nM | 7.28 |
| O=C1CN(C(=O)c2cc(-c3cccc(OCCCN4CCOCC4)c3)n(-c3cccc(Cl)c3)n2)CN1 [Example 37, 1-({1-(3-Chlorophenyl)-5-[3-(3-morpholin-1-ylpropoxy)phenyl]-1H-pyrazol-3-yl}carbonyl)imidazolidin-4-one] | 33 nM | 18 nM | 175 nM | 2000 nM | – |
| COc1cccc(-c2cc(C(=O)N3CNC(=O)C3)nn2-c2ccc(F)c(Cl)c2)c1 [Example 38, 1-{[1-(3-Chloro-4-fluorophenyl)-5-(3-methoxyphenyl)-1H-pyrazol-3-yl]carbonyl}imidazolidin-4-one] | 120 nM | 9 nM | 365 nM | 80 nM | – |
| Cc1cc(F)cc(-c2cc(C(=O)N3CNC(=O)C3)nn2-c2cccc(Cl)c2)c1 [Example 51, 1-{[1-(3-Chlorophenyl)-5-(3-fluoro-5-methylphenyl)-1H-pyrazol-3-yl]carbonyl}imidazolidin-4-one] | 1 nM | 0.4 nM | 60 nM | 15 nM | – |
| N#Cc1cccc(-n2nc(C(=O)N3CNC(=O)C3)cc2-c2ccc(F)c(Cl)c2)c1 [Example 52, 1-{[5-(3-Chloro-4-fluorophenyl)-1-(3-Cyanophenyl)-1H-pyrazol-3-yl]carbonyl}imidazolidin-4-one] | 2 nM | 0.1 nM | 38 nM | 17 nM | – |
| N#Cc1cc(-n2nc(C(=O)N3CNC(=O)C3)cc2-c2cccc(Cl)c2)ccc1F [Example 53, 1-{[5-(3-Chlorophenyl)-1-(3-Cyano-4-fluorophenyl)-1H-pyrazol-3-yl]carbonyl}imidazolidin-4-one] | 1 nM | 0.3 nM | 46 nM | 33 nM | – |
| N#Cc1cccc(-n2nc(C(=O)N3CNC(=O)C3)cc2-c2cccc(Cl)c2)c1 [Example 56, 3-{5-(3-Chlorophenyl)-3-[(4-oxoimidazolidin-1-yl)carbonyl]-1H-pyrazol-1-yl}benzenecarbonitrile] | 0.1 nM | 0.03 nM | 14 nM | 12 nM | – |
